pEC50, pKd: −log10 of the molar value. In brackets after ≈: the same amount, converted by molar mass.
How the values were obtained:
[1] = tested on: Plasmodium falciparum; assay: Antimalarial activity against MMV-048 resistant Plasmodium falciparum Dd2 harboring PI4K S743T mutant assessed as reduction in parasite growth incubated for 72 hrs by [3H]-hypoxanthine incorporation assay; type: functional, organism-based
[2] = tested on: Plasmodium falciparum; assay: Antimalarial activity against Plasmodium falciparum Dd2 assessed as reduction in parasite growth incubated for 72 hrs by [3H]-hypoxanthine incorporation assay; type: functional, organism-based
[3] = tested on: Plasmodium falciparum; assay: Antimalarial activity against asexual blood stage Plasmodium falciparum 3D7 assessed as reduction in parasite growth incubated for 72 hrs by LDH assay; type: functional, organism-based; conditions: 3D7, 72 h
[4] = tested on: HepG2; assay: Cytotoxicity against human HepG2 cells assessed as reduction in cell viability incubated for 48 hrs by Cell Titer-Glo assay; type: functional, cell-based; conditions: HepG2, 48 h
[5] = tested on: Plasmodium falciparum; assay: Antimalarial activity against KAF-156 resistant Plasmodium falciparum Dd2 harboring CARL I1139K mutant assessed as reduction in parasite growth incubated for 72 hrs by [3H]-hypoxanthine incorporation assay; type: functional, organism-based
[6] = tested on: Plasmodium falciparum; assay: Antimalarial activity against ELQ-300 resistant Plasmodium falciparum Dd2 harboring Cyt b I22L mutant assessed as reduction in parasite growth incubated for 72 hrs by [3H]-hypoxanthine incorporation assay; type: functional, organism-based
[7] = Binding affinity to recombinant Plasmodium falciparum START1 assessed as dissociation constant by isothermal titration calorimetry
[8] = tested on: Plasmodium falciparum; assay: Antimalarial activity against MMV006833 resistant Plasmodium falciparum 3D7 assessed as reduction in parasite growth incubated for 72 hrs by LDH assay; type: functional, organism-based; conditions: 3D7, 72 h
[9] = tested on: Plasmodium falciparum; assay: Antimalarial activity against MMV006833 resistant Plasmodium falciparum 3D7 harboring START1 N330K mutant assessed as reduction in parasite growth incubated for 72 hrs by LDH assay; type: functional, organism-based; conditions: 3D7, 72 h
[10] = tested on: Plasmodium falciparum; assay: Antimalarial activity against MMV006833 resistant Plasmodium falciparum 3D7 harboring START1 N309K mutant assessed as reduction in parasite growth incubated for 72 hrs by LDH assay; type: functional, organism-based; conditions: 3D7, 72 h
[11] = tested on: Plasmodium falciparum; assay: Antimalarial activity against DDD-107498 resistant Plasmodium falciparum Dd2 harboring eEF2 Y86N mutant assessed as reduction in parasite growth incubated for 72 hrs by [3H]-hypoxanthine incorporation assay; type: functional, organism-based
[12] = tested on: Plasmodium falciparum; assay: Antimalarial activity against atovaquone resistant Plasmodium falciparum TM90-C2B assessed as reduction in parasite growth incubated for 72 hrs by [3H]-hypoxanthine incorporation assay; type: functional, organism-based
[13] = tested on: Plasmodium falciparum; assay: Antimalarial activity against chloroquine and mefloquine resistant Plasmodium falciparum RF12 assessed as reduction in parasite growth incubated for 72 hrs by [3H]-hypoxanthine incorporation assay; type: functional, organism-based
[14] = Intrinsic clearance in rat hepatocyte measured per 10^6 cells at 1 uM incubated upto 90 mins by LC-MS/MS analysis; type: ADME, cell-based; conditions: rat hepatocytes, read-out: CLH
[15] = tested on: Plasmodium falciparum; assay: Antimalarial activity against DSM-265 resistant Plasmodium falciparum Dd2 harboring DHODH C276F mutant assessed as reduction in parasite growth incubated for 72 hrs by [3H]-hypoxanthine incorporation assay; type: functional, organism-based
[16] = tested on: Plasmodium falciparum; assay: Antimalarial activity against chloroquine and mefloquine resistant Plasmodium falciparum K1 assessed as reduction in parasite growth incubated for 72 hrs by [3H]-hypoxanthine incorporation assay; type: functional, organism-based
[17] = Intrinsic clearance in human liver microsomes at 1 uM incubated upto 60 mins in presence of NADPH by LC-MS/MS analysis; type: ADME, Microsome; conditions: read-out: CLH
[18] = Lipophilicity, LogD of compound in 1-Octanol and PBS at pH 7.4 at 7.5 uM incubated for 2 hrs shake flask method based LC-MS/MS analysis; type: physicochemical; conditions: 1-octanol/PBS
[19] = tested on: Plasmodium falciparum; assay: Antimalarial activity against chloroquine and mefloquine resistant Plasmodium falciparum NF54 assessed as reduction in parasite growth incubated for 72 hrs by [3H]-hypoxanthine incorporation assay; type: functional, organism-based
[20] = tested on: Plasmodium falciparum; assay: Antimalarial activity against chloroquine and mefloquine resistant Plasmodium falciparum 7G8 assessed as reduction in parasite growth incubated for 72 hrs by [3H]-hypoxanthine incorporation assay; type: functional, organism-based
[21] = Kinetic aqueous solubility of the compound in PBS at pH 7.4 incubated for 2 hr under shaking condition by shake flask based UV reader plate analysis; type: physicochemical; conditions: read-out: Kinetic_solubility
[22] = tested on: Plasmodium falciparum; assay: Binding affinity to recombinant Plasmodium falciparum START1 assessed as change in enthalpy at 10 uM by isothermal titration calorimetry
[23] = tested on: Plasmodium falciparum; assay: Binding affinity to recombinant Plasmodium falciparum START1 assessed as change in entropy at 10 uM by isothermal titration calorimetry
[24] = tested on: Plasmodium berghei; assay: Antimalarial activity against Plasmodium berghei ANKA infected in mouse assessed as reduction of parasitaemia at 30 mg/kg,po bid administrated for 72 hrs and measured after 24 hrs post last dose by Giemsa staining based microscopic analysis relative to control; type: functional; parameters: scale not given: the % may be the effect or the level left; conditions: time 96 hrs

Structure (SMILES)	pEC50 [3]	pEC50 [4]	further results
CS(=O)(=O)c1ccc(-c2cnc(N)c(-c3ccc(C(F)(F)F)nc3)c2)cc1 [MMV-048]	–	–	pEC50 [1]: 6.92; pEC50 [2]: 7.80
O=C(CNc1ccc(Cl)c(S(=O)(=O)N2CCOCC2)c1)Nc1cccc(OC(F)(F)F)c1	5.30	4.70	–
Cc1ccc(NCC(=O)Nc2cccc(C(F)(F)F)c2)cc1S(=O)(=O)N1CCOCC1	5.42	< 4.40	–
CC1(C)c2nc(-c3ccc(F)cc3)c(Nc3ccc(F)cc3)n2CCN1C(=O)CN [GANAPLACIDE]	–	–	pEC50 [5]: 5.82; pEC50 [2]: 8.10
O=C(CNc1ccc(Cl)c(S(=O)(=O)N2CCOCC2)c1)Nc1cccc(Cl)n1	5.05	< 4.40	–
CCC[C@H](Nc1ccc(Cl)c(S(=O)(=O)N2CCOCC2)c1)C(=O)Nc1ccc(F)c(Cl)c1	6.85	4.79	–
COc1cc2[nH]c(C)c(-c3ccc(Oc4ccc(OC(F)(F)F)cc4)cc3)c(=O)c2cc1Cl	–	–	pEC50 [6]: 6.74; pEC50 [2]: 7.68
O=C(Nc1ccc(F)c(Cl)c1)C(Nc1ccc(Cl)c(S(=O)(=O)N2CCOCC2)c1)c1ccccc1 (racemic)	5.20	4.71	–
Cc1cc(Cl)c(S(=O)(=O)N2CCOCC2)cc1OCC(=O)NC1CCCCC1	5.80	< 4.40	–
Cc1cc(Cl)c(S(=O)(=O)N2CCCC2)cc1OCC(=O)NC1CCCCC1	–	–	pKd [7]: 7.38
O=C(CNc1ccc(Cl)c(S(=O)(=O)N2CCOCC2)c1)Nc1cccc(Cl)c1	6.55	< 4.40	–
COC1CCN(S(=O)(=O)c2cc(NCC(=O)Nc3ccc(F)c(Cl)c3)ccc2Cl)CC1	5.82	< 4.40	–
O=C(CNc1ccc(Cl)c(S(=O)(=O)N2CCOCC2)c1)Nc1cc(Cl)ccn1	5.55	< 4.40	–
Cc1cc(Cl)c(S(=O)(=O)N2CCOCC2)cc1OCC(=O)Nc1ccc(F)c(Cl)c1	6.52	< 4.40	–
O=C(COc1ccc(Cl)c(S(=O)(=O)N2CCOCC2)c1)NC1CCCCC1	5.37	< 4.40	–
CCC(C)[C@H](Nc1ccc(Cl)c(S(=O)(=O)N2CCOCC2)c1)C(=O)Nc1ccc(F)c(Cl)c1 (some centres undefined)	7.57	4.96	pEC50 [8]: 7.82; pEC50 [9]: 5.80; pEC50 [10]: 5.68
O=C(CNc1ccc(Cl)c(S(=O)(=O)N2CCOCC2)c1)Nc1ccc(F)c(Cl)c1	7.10	< 4.40	pEC50 [11]: 7.55; pEC50 [12]: 7.51; pEC50 [13]: 7.49; pEC50 [5]: 7.59; hepatocyte CLint at 1 µM [14]: > 92 µL/min/1e6 cells; pEC50 [15]: 7.70; pEC50 [16]: 7.32; pEC50 [6]: 7.62; microsomal CLint at 1 µM [17]: > 462 µL/min/mg; pEC50 [1]: 7.55; pEC50 [2]: 7.27; logD at 2 h, 7.5 µM [18]: 2.2; pEC50 [19]: 7.38; pEC50 [20]: 7.59; solubility kinetic at 2 h [21]: 19 µM (≈ 8.78 µg/mL)
O=C(NCCN1CCCC1)c1cc(-c2ccc(CN3CCOCC3)cc2)nc2ccc(F)cc12 [CABAMIQUINE]	–	–	pEC50 [11]: 6.07
O=C(COc1ccc(Cl)c(S(=O)(=O)N2CCOCC2)c1)Nc1ccc(F)c(Cl)c1	6.09	< 4.40	–
N#Cc1cccc(NC(=O)CNc2ccc(Cl)c(S(=O)(=O)N3CCOCC3)c2)c1	5.82	< 4.40	–
C[C@H](Nc1ccc(Cl)c(S(=O)(=O)N2CCOCC2)c1)C(=O)Nc1ccc(F)c(Cl)c1	7.66	< 4.40	pEC50 [8]: 8.52; hepatocyte CLint at 1 µM [14]: > 92 µL/min/1e6 cells; pEC50 [9]: 5.77; microsomal CLint at 1 µM [17]: > 462 µL/min/mg; logD at 2 h, 7.5 µM [18]: 3.9; deltaH [22]: -17.7 kcal/mol; pEC50 [10]: 5.68; -TdeltaS [23]: 7.8 kcal/mol; pKd [7]: 7.18; solubility kinetic at 2 h [21]: 14 µM (≈ 6.67 µg/mL)
C[C@@H](Nc1ccc(Cl)c(S(=O)(=O)N2CCOCC2)c1)C(=O)Nc1cncc(Cl)c1	5.96	< 4.40	–
C[C@@H]1CC[C@H]2[C@@H](C)C(=O)O[C@@H]3O[C@@]4(C)CC[C@@H]1[C@]32OO4 [ARTEMISININ]	–	–	Activity [24]: >98%

Structure (SMILES)	pEC50 [3]	pEC50 [4]	further results
Cc1ccc(NCC(=O)Nc2ccc(F)c(Cl)c2)cc1S(=O)(=O)N1CCOCC1	6.57	–	–
O=C(Nc1ccc(F)c(Cl)c1)[C@@H]1CCCCN1c1ccc(Cl)c(S(=O)(=O)N2CCOCC2)c1	6.38	4.68	–
O=C(CNc1ccc(Cl)c(S(=O)(=O)N2CCOCC2)c1)Nc1cncc(Cl)c1	6.39	< 4.40	–
CN1CCC(NS(=O)(=O)c2cc(NCC(=O)Nc3ccc(F)c(Cl)c3)ccc2Cl)CC1	< 5.00	< 4.40	–
O=C(CNc1ccc(Cl)c(S(=O)(=O)N2CCC(Cc3ccccc3)CC2)c1)Nc1ccc(F)c(Cl)c1	6.57	4.85	–
COc1ccc(NCC(=O)Nc2ccc(F)c(Cl)c2)cc1S(=O)(=O)N1CCOCC1	6.37	< 4.40	–
Cc1cc(Cl)c(S(=O)(=O)N2CCOCC2)cc1NCC(=O)Nc1ccc(F)c(Cl)c1	6.89	< 4.40	–
CC(C)CC(Nc1ccc(Cl)c(S(=O)(=O)N2CCOCC2)c1)C(=O)Nc1ccc(F)c(Cl)c1 (racemic)	6.07	5.02	–
CN(C)C1CCN(S(=O)(=O)c2cc(NCC(=O)Nc3ccc(F)c(Cl)c3)ccc2Cl)CC1	< 5.00	< 4.40	–
Cc1cc(Cl)c(S(=O)(=O)N2CCOCC2)cc1NCC(=O)NC1CCCCC1	6.00	< 4.40	–
CC(C)[C@H](Nc1ccc(Cl)c(S(=O)(=O)N2CCOCC2)c1)C(=O)Nc1ccc(F)c(Cl)c1	7.48	4.52	pEC50 [8]: 8.30; pEC50 [9]: 5.68; pEC50 [10]: 5.62
CC(=O)N1CCN(S(=O)(=O)c2cc(NCC(=O)Nc3ccc(F)c(Cl)c3)ccc2Cl)CC1	5.04	< 4.40	–
O=C(CNc1ccc(Cl)c(S(=O)(=O)N2CCOCC2)c1)Nc1ccnc(Cl)c1	5.96	< 4.40	–
CN1CCN(S(=O)(=O)c2cc(NCC(=O)Nc3ccc(F)c(Cl)c3)ccc2Cl)CC1	< 5.00	< 4.40	–
O=C(CNc1ccc(F)c(S(=O)(=O)N2CCOCC2)c1)Nc1ccc(F)c(Cl)c1	6.40	–	–
N#Cc1ccc(NCC(=O)Nc2ccc(F)c(Cl)c2)cc1S(=O)(=O)N1CCOCC1	6.12	< 4.40	–
O=C(Nc1ccc(F)c(Cl)c1)C(Cc1ccccc1)Nc1ccc(Cl)c(S(=O)(=O)N2CCOCC2)c1 (racemic)	5.85	4.81	–
C[C@H](Nc1ccc(Cl)c(S(=O)(=O)N2CCOCC2)c1)C(=O)Nc1cncc(Cl)c1	7.27	< 4.40	pEC50 [8]: 7.80; hepatocyte CLint at 1 µM [14]: 50 µL/min/1e6 cells; pEC50 [9]: 5.59; microsomal CLint at 1 µM [17]: > 462 µL/min/mg; logD at 2 h, 7.5 µM [18]: 3.1; deltaH [22]: -14.4 kcal/mol; pEC50 [10]: 5.11; -TdeltaS [23]: 4.8 kcal/mol; pKd [7]: 6.92; solubility kinetic at 2 h [21]: 77 µM (≈ 35.4 µg/mL)
C[C@@H](Nc1ccc(Cl)c(S(=O)(=O)N2CCOCC2)c1)C(=O)Nc1ccc(F)c(Cl)c1	6.49	< 4.40	pEC50 [8]: 7.00; pEC50 [9]: 5.36; deltaH [22]: -16.1 kcal/mol; pEC50 [10]: 5.37; -TdeltaS [23]: 6.7 kcal/mol; pKd [7]: 6.86
Cc1ccc(NCC(=O)Nc2ccccc2)cc1S(=O)(=O)N1CCOCC1	5.68	< 4.40	–
CCC(Nc1ccc(Cl)c(S(=O)(=O)N2CCOCC2)c1)C(=O)Nc1ccc(F)c(Cl)c1 (racemic)	7.96	4.61	–
Cc1ccc(NCC(=O)Nc2cccc(Cl)c2)cc1S(=O)(=O)N1CCOCC1	6.44	< 4.40	–
CC1CCN(S(=O)(=O)c2cc(NCC(=O)Nc3ccc(F)c(Cl)c3)ccc2Cl)CC1	6.59	4.57	–
